Measurements taken from ChEMBL document CHEMBL1140528, “A novel flavonoid from Lespedeza virgata (Thunb.) DC.: structural elucidation and antioxidative activity” (Bioorg Med Chem Lett, 2007).
Converted amounts (≈) assume the structure as drawn. The source made the active and inactive calls. No cut-off for these calls is given here.

Key:
Format in all cases: functional
[1] = Antioxidant activity assessed as superoxide radical anion scavenging activity at 0.5 mg/ml by hypoxanthine NBT method
[2] = Antioxidant activity assessed as superoxide radical anion scavenging activity at 0.2 mg/ml by hypoxanthine NBT method
[3] = Antioxidant activity assessed as superoxide radical anion scavenging activity by hypoxanthine NBT method

| IC50 [3] [µg/mL] | Compound | Activity [1] [%] | Activity [2] |
| --- | --- | --- | --- |
| – | C[C@@H]1O[C@@H](Oc2cc(O)c3c(=O)c(O[C@@H]4O[C@@H](C)[C@H](O)[C@@H](O)[C@H]4O)c(-c4ccc(O)cc4)oc3c2)[C@H](O)[C@H](O)[C@H]1O | 17.6 | – |
| – | O=c1c(O)c(-c2ccc(O)c(O)c2)oc2cc(O[C@@H]3O[C@H](CO)[C@@H](O)[C@H](O)[C@H]3O)cc(O)c12 | 71.7 | – |
| – | C[C@@H]1O[C@@H](Oc2c(-c3ccc(O)c(O)c3)oc3cc(O)cc(O)c3c2=O)[C@H](O)[C@H](O)[C@H]1O | 88.9 | – |
| – | C[C@@H]1O[C@@H](Oc2c(-c3ccc(O)cc3)oc3cc(O)cc(O)c3c2=O)[C@H](O)[C@H](O)[C@H]1O | 29.9 | – |
| – | O=c1c(O[C@@H]2O[C@H](CO)[C@@H](O)[C@H](O)[C@H]2O)c(-c2ccc(O)cc2)oc2cc(O)cc(O)c12 | 51.7 | – |
| 140 (≈ 312 µM) | COc1cc2c(cc1[C@@H]1CC(=O)c3c(O)c(C)c4c(c3O1)C=CC(C)(C)O4)C=CC(C)(C)O2 | 95.8 | Active |
